Laboratory results: patent publication US10196357B2, “Biaryl compositions and methods for modulating a kinase cascade” (Athenex, Inc., priority 2007, dated 2019)
Several values for one entry are separate records, joined by “and”; a condition that tells them apart may be missing. Identical values can stand only once.

Columns and labels:
[1] = tested on: lung cancer cell line A549; test: tumor growth inhibition, A549; assay type: cell-based, Human; settings: A549 (Lung) cells
Description: (§1) Growth Inhibition. […] T1 values≤T0 values were designated as T, cytotoxicity.

SKOV-3 (Ovarian) = test: growth inhibition (BrdU), SKOV-3; assay type: cell-based, Human; settings: SKOV-3 (Ovarian) cells
Description: as §1

Shc Y239/240 = test: intracellular phosphorylation, Shc Y239/240; assay type: cell-based; settings: whole cells
Method: HT29 (colon cancer) and c-Src527F/NIH-3T3 (Src transformed) cell lines were treated with KX2-391 or with AstraZeneca's ATP competitive Src inhibitor AZ28. AZ28 serves as a positive comparator to show what a validated Src inhibitor should do in these assays. After treatment with compound, cells were lysed, subjected to PAGE and probed with a battery of antibodies. […] In addition, off-target protein phosphorylation was also investigated. Further, induction of apoptosis was evaluated via Caspase 3 cleavage. Multiple doses of each compound were tested because the trends in response to increasing drug concentration are the most reliable indicator of activity.
The same range of multiples of the GI50 for AZ28 in these two cell lines was run as a comparison.
KX2-391 and AZ28 inhibited Src transphosphorylation.

isolated Src = isolated Src (Homo sapiens, UniProt P12931); test: titration against isolated Src; assay type: biochemical; settings: titration data
[2] = tested on: HT29 (human colon cancer); settings: KXO1 2.0 and 4 mg/kg bid vs Dasatinib 25 then 15 mg/kg bid, 28 days
L3.6pl cells = test: growth inhibition (BrdU), L3.6pl; assay type: cell-based, human; settings: L3.6pl (Pancreas) cells, single agent
Description: L3.6pl cells are previously described in Trevino et al. Am J Pathol.

PC3-MM2 (Prostate) = test: growth inhibition, PC3-MM2; assay type: cell-based, Human; settings: PC3-MM2 (Prostate) cells
[3] = plasma exposure after oral administration; assay type: in vivo, male CD-1 mice; settings: Male CD-1 mice
Method: Plasma concentrations were measured in mice after oral administration. All doses were formulated in purified water. Four groups of male CD-1 mice were dosed after an overnight fast and fed 4 hours post-dose. Dosing was as follows:
Protein was precipitated with 0.25 mL acetonitrile for plasma, 0.25 mL for brain. After centrifugation, supernatant was directly injected into an LC/MS system. The limit of quantitation was 1 ng/mL using a 50 μL aliquot for plasma and a 50 μL, aliquot for brain. The standard curve was 1 to 1,000 ng/mL for both plasma and brain. HPLC conditions were as follows:
HPLC System: Shimadzu SCL-10 System
• Analytical Column: Aquasil C18 5 μm 100×2 mm column. • Column Temperature: Ambient temperature • Autosampler Temperature: Ambient temperature • Mobile Phase A) 10 mM Ammonium formate in water (pH 4). • B) Acetonitrile. • Flow Rate: 0.6 mL/min • Injection Volume: 2 μL • Gradient:
• Mass Spectrometry Conditions were as follows: • Instrument: ABI Sciex API 4000 • Mode: ESI+ • Experiment: MRM (multiple reaction monitoring) • Transitions: KX2-391: m/z 432.4→114.2 (Rt=3.11 minute) • KX2-361: m/z 406.1→253.2 (Rt=3.33 minute)

GL261 glioma cells = test: intracranial GL261 glioma survival study; assay type: in vivo, C57BL/6 mice; settings: for Median survival / survival Range: C57BL/6 mice, intracranial GL261
Method: (§2) A brain tumor mouse xenograft study was conducted comparing KX2-361 and KX2-391 (KXO1) to Temodar®. The studies were conducted in C57BL/6 mice. GL261 glioma cells (1×10^5 in 5 μl DMEM) were implanted intracranial coordinates: bregma, lateral 2.0 mm, anterior 1.2 mm, 3.0 mm depth dura. Treatment was initiated 3 days post implantation. The groups were as follows (all doses in 100 μl H2O):
The median survival range and the log-rank (Mantel-Cox) statistical test results comparing the survival distributions of the samples.

[4] = body weight in GL261 glioma survival study; assay type: in vivo; settings: C57BL/6 mice
Method: as §2
FIGS. 49A-E show the weight gain in each of the C57BL/6 mice in the different treatment groups. The average weight at endpoint for each of the treatment groups is shown below in Table 30. FIG. 50 is a graph showing the average weights over a 40-day period for each of the treatment groups.

[5] = single PO dose 10 mg/kg (Group 3), 0 hr
[6] = single PO dose 10 mg/kg (Group 3), 0.5 hr
[7] = single PO dose 10 mg/kg (Group 3), 1 hr
[8] = single PO dose 10 mg/kg (Group 3), 2 hr
[9] = single PO dose 10 mg/kg (Group 3), 5 hr
[10] = single PO dose 50 mg/kg (Group 4), 0 hr
[11] = single PO dose 50 mg/kg (Group 4), 0.5 hr
[12] = single PO dose 50 mg/kg (Group 4), 1 hr
[13] = single PO dose 50 mg/kg (Group 4), 2 hr
[14] = single PO dose 50 mg/kg (Group 4), 5 hr

Sequence of isolated Src (P12931 whole entry): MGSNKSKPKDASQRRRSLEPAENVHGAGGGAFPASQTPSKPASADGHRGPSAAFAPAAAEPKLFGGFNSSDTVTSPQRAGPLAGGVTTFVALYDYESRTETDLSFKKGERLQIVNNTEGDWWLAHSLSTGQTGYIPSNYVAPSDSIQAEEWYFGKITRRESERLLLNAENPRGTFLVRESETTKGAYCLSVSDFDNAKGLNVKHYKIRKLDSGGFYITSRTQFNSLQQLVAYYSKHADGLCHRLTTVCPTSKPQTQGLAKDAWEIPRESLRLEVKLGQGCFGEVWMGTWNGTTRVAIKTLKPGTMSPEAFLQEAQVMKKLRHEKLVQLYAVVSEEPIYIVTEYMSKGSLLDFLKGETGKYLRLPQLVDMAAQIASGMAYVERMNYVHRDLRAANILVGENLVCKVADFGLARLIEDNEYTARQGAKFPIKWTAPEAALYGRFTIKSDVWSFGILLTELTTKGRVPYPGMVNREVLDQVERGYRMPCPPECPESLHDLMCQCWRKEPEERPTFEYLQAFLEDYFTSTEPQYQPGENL

Compound: O=C(Cc1ccc(-c2ccc(OCCN3CCOCC3)cc2)cn1)NCc1ccccc1 [KXO1]
- GI50 [1]: 9.4 nM and 13 nM
- GI50 (SKOV-3 (Ovarian)): 9.8 nM
- phosphorylation of Shc Y239/240 (Src transphosphorylation) (Shc Y239/240): potent inhibitor
- IC50 (isolated Src): 46000 nM
- oral potency in staged HT29 mouse xenografts [2]: higher oral potency
- GI50 (L3.6pl cells): 25 nM and 32 nM
- GI50 (PC3-MM2 (Prostate)): 8.9 nM

Compound: O=C(Cc1ccc(-c2ccc(N3CCOCC3)cc2)cn1)NCc1cccc(F)c1 [KX2-361]
- KX2-361 Plasma Concentrations, Group A [3, 5]: BLQ (BLQ: Below Limit of Quantitation (1 ng/mL))
- KX2-361 Plasma Concentrations, Group B [3, 5]: BLQ (BLQ: Below Limit of Quantitation (1 ng/mL))
- KX2-361 Plasma Concentrations, Group C [3, 5]: BLQ (BLQ: Below Limit of Quantitation (1 ng/mL))
- KX2-361 Plasma Concentrations, Group A [3, 6]: 65.93 ng/mL
- KX2-361 Plasma Concentrations, Group B [3, 6]: 217.56 ng/mL
- KX2-361 Plasma Concentrations, Group C [3, 6]: 159.53 ng/mL
- KX2-361 Plasma Concentrations, Group A [3, 7]: 284.09 ng/mL
- KX2-361 Plasma Concentrations, Group B [3, 7]: 596.31 ng/mL
- KX2-361 Plasma Concentrations, Group C [3, 7]: 398.35 ng/mL
- KX2-361 Plasma Concentrations, Group A [3, 8]: 153.07 ng/mL
- KX2-361 Plasma Concentrations, Group B [3, 8]: 118.96 ng/mL
- KX2-361 Plasma Concentrations, Group C [3, 8]: 342.45 ng/mL
- KX2-361 Plasma Concentrations, Group A [3, 9]: 2.63 ng/mL
- KX2-361 Plasma Concentrations, Group B [3, 9]: 64.15 ng/mL
- KX2-361 Plasma Concentrations, Group C [3, 9]: 53.18 ng/mL
- KX2-361 Plasma Concentrations, Group A [3, 10]: BLQ (BLQ: Below Limit of Quantitation (1 ng/mL))
- KX2-361 Plasma Concentrations, Group B [3, 10]: BLQ (BLQ: Below Limit of Quantitation (1 ng/mL))
- KX2-361 Plasma Concentrations, Group C [3, 10]: BLQ (BLQ: Below Limit of Quantitation (1 ng/mL))
- KX2-361 Plasma Concentrations, Group B [3, 11]: 2316.91 ng/mL
- KX2-361 Plasma Concentrations, Group C [3, 11]: 1587.18 ng/mL
- KX2-361 Plasma Concentrations, Group A [3, 12]: 1805.19 ng/mL
- KX2-361 Plasma Concentrations, Group B [3, 12]: 969.48 ng/mL
- KX2-361 Plasma Concentrations, Group C [3, 12]: 3635.91 ng/mL
- KX2-361 Plasma Concentrations, Group A [3, 13]: 475.13 ng/mL
- KX2-361 Plasma Concentrations, Group B [3, 13]: 1710.13 ng/mL
- KX2-361 Plasma Concentrations, Group C [3, 13]: 1709.02 ng/mL
- KX2-361 Plasma Concentrations, Group A [3, 14]: 138.53 ng/mL
- KX2-361 Plasma Concentrations, Group B [3, 14]: 252.81 ng/mL
- KX2-361 Plasma Concentrations, Group C [3, 14]: 298.99 ng/mL
- Median survival (GL261 glioma cells; 15 mg/kg bid oral): 30.5
- survival Range (GL261 glioma cells; 15 mg/kg bid oral): 25-34
- Median survival (GL261 glioma cells; 30 mg/kg bid oral): 29
- survival Range (GL261 glioma cells; 30 mg/kg bid oral): 23-32
- survival of mice bearing intracranial GL261 gliomas (GL261 glioma cells; orally at 15 mg/kg/dose bid 7 hours apart): best results
- Average weight at endpoint ([4]; 15 mg/kg): 16.9 g
- Average weight at endpoint ([4]; 30 mg/kg): 15.0 g
